{"source": "ChEMBL document CHEMBL1201862", "about": "“PubChem BioAssay data set” (2004)", "test_in_all_cases": "NCI tumour cell line growth inhibition, 48 h", "key": {"786-0": {"system": "786-0"}, "A498": {"system": "A498"}, "A549": {"system": "A549"}, "ACHN": {"system": "ACHN"}, "BT-549": {"system": "BT-549"}, "CAKI-1": {"system": "CAKI-1"}, "COLO 205": {"system": "COLO 205"}, "DU-145": {"system": "DU-145"}, "EKVX": {"system": "EKVX"}, "HCC 2998": {"system": "HCC 2998"}, "HCT-116": {"system": "HCT-116"}, "HCT-15": {"system": "HCT-15"}, "HL-60": {"system": "HL-60"}, "HOP-62": {"system": "HOP-62"}, "HOP-92": {"system": "HOP-92"}, "HT-29": {"system": "HT-29"}, "Hs-578T": {"system": "Hs-578T"}, "IGROV-1": {"system": "IGROV-1"}, "K562": {"system": "K562"}, "KM12": {"system": "KM12"}, "LOX IMVI": {"system": "LOX IMVI"}, "M14": {"system": "M14"}, "MCF7": {"system": "MCF7"}, "MDA-MB-231": {"system": "MDA-MB-231"}, "MDA-MB-435": {"system": "MDA-MB-435"}, "MDA-N": {"system": "MDA-N"}, "MOLT-4": {"system": "MOLT-4"}, "Malme-3M": {"system": "Malme-3M"}, "NCI-H226": {"system": "NCI-H226"}, "NCI-H23": {"system": "NCI-H23"}, "NCI-H460": {"system": "NCI-H460"}, "NCI-H522": {"system": "NCI-H522"}, "NCI/ADR-RES": {"system": "NCI/ADR-RES"}, "OVCAR-3": {"system": "OVCAR-3"}, "OVCAR-4": {"system": "OVCAR-4"}, "OVCAR-5": {"system": "OVCAR-5"}, "OVCAR-8": {"system": "OVCAR-8"}, "PC-3": {"system": "PC-3"}, "RPMI-8226": {"system": "RPMI-8226"}, "RXF 393": {"system": "RXF 393"}, "SF-268": {"system": "SF-268"}, "SF-295": {"system": "SF-295"}, "SK-MEL-2": {"system": "SK-MEL-2"}, "SK-MEL-5": {"system": "SK-MEL-5"}, "SK-OV-3": {"system": "SK-OV-3"}, "SN12C": {"system": "SN12C"}, "SNB-19": {"system": "SNB-19"}, "SNB-75": {"system": "SNB-75"}, "SR": {"system": "SR"}, "SW-620": {"system": "SW-620"}, "T47D": {"system": "T47D"}, "TK-10": {"system": "TK-10"}, "U-251": {"system": "U-251"}, "UACC-257": {"system": "UACC-257"}, "UACC-62": {"system": "UACC-62"}, "UO-31": {"system": "UO-31"}}, "note": "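Growth conditions: 96-well plates. Treatment: test compound, 48 hours, 5 concentrations. Analysis: linear interpolation between bracketing concentrations; unreached endpoints set to highest concentration. At the GI50, growth is halved.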 Calls of active or inactive are those of the source. Cut-off read from the data, not from the text of the source: active = GI50 up to about 1.1 µM and inactive = higher.", "data": [{"smiles": "CC1=NN(c2cccc(Cl)c2)C2(C1)C(Cl)C(=O)N2c1nc2ccccc2s1", "note": "(stereo unspecified)", "values": [{"measurement": "GI50", "setting": "786-0", "value": "21.1 µM (inactive)"}, {"measurement": "GI50", "setting": "A498", "value": "35.9 µM (inactive)"}, {"measurement": "GI50", "setting": "A549", "value": "25.6 µM (inactive)"}, {"measurement": "GI50", "setting": "ACHN", "value": "32.7 µM (inactive)"}, {"measurement": "GI50", "setting": "BT-549", "value": "27.8 µM (inactive)"}, {"measurement": "GI50", "setting": "CAKI-1", "value": "33.1 µM (inactive)"}, {"measurement": "GI50", "setting": "COLO 205", "value": "18 µM (inactive)"}, {"measurement": "GI50", "setting": "DU-145", "value": "37.1 µM (inactive)"}, {"measurement": "GI50", "setting": "EKVX", "value": "45.5 µM (inactive)"}, {"measurement": "GI50", "setting": "HCC 2998", "value": "55.1 µM (inactive)"}, {"measurement": "GI50", "setting": "HCT-116", "value": "19.2 µM (inactive)"}, {"measurement": "GI50", "setting": "HCT-15", "value": 28.8, "unit": "µM"}, {"measurement": "GI50", "setting": "HL-60", "value": "23.3 µM (inactive)"}, {"measurement": "GI50", "setting": "HOP-62", "value": "25.5 µM (inactive)"}, {"measurement": "GI50", "setting": "HOP-92", "value": "25.3 µM (inactive)"}, {"measurement": "GI50", "setting": "HT-29", "value": "33.6 µM (inactive)"}, {"measurement": "GI50", "setting": "Hs-578T", "value": "45.2 µM (inactive)"}, {"measurement": "GI50", "setting": "IGROV-1", "value": "21.8 µM (inactive)"}, {"measurement": "GI50", "setting": "K562", "value": "16.2 µM (inactive)"}, {"measurement": "GI50", "setting": "KM12", "value": "22.3 µM (inactive)"}, {"measurement": "GI50", "setting": "LOX IMVI", "value": "18.7 µM (inactive)"}, {"measurement": "GI50", "setting": "M14", "value": "22.5 µM (inactive)"}, {"measurement": "GI50", "setting": "MCF7", "value": "32.1 µM (inactive)"}, {"measurement": "GI50", "setting": "MDA-MB-231", "value": "21.5 µM (inactive)"}, {"measurement": "GI50", "setting": "MDA-MB-435", "value": "25.6 µM (inactive)"}, {"measurement": "GI50", "setting": "MDA-N", "value": "29.2 µM (inactive)"}, {"measurement": "GI50", "setting": "MOLT-4", "value": "14.5 µM (inactive)"}, {"measurement": "GI50", "setting": "Malme-3M", "value": "30.5 µM (inactive)"}, {"measurement": "GI50", "setting": "NCI-H226", "value": "14.2 µM (inactive)"}, {"measurement": "GI50", "setting": "NCI-H23", "value": "19.7 µM (inactive)"}, {"measurement": "GI50", "setting": "NCI-H460", "value": "36.6 µM (inactive)"}, {"measurement": "GI50", "setting": "NCI-H522", "value": "21.8 µM (inactive)"}, {"measurement": "GI50", "setting": "NCI/ADR-RES", "value": "25.4 µM (inactive)"}, {"measurement": "GI50", "setting": "OVCAR-3", "value": "20.5 µM (inactive)"}, {"measurement": "GI50", "setting": "OVCAR-4", "value": "34.7 µM (inactive)"}, {"measurement": "GI50", "setting": "OVCAR-5", "value": "44.4 µM (inactive)"}, {"measurement": "GI50", "setting": "OVCAR-8", "value": "32.5 µM (inactive)"}, {"measurement": "GI50", "setting": "PC-3", "value": "22.6 µM (inactive)"}, {"measurement": "GI50", "setting": "RPMI-8226", "value": "17.3 µM (inactive)"}, {"measurement": "GI50", "setting": "RXF 393", "value": "27.9 µM (inactive)"}, {"measurement": "GI50", "setting": "SF-268", "value": "33.2 µM (inactive)"}, {"measurement": "GI50", "setting": "SF-295", "value": "31.2 µM (inactive)"}, {"measurement": "GI50", "setting": "SK-MEL-2", "value": "17.1 µM (inactive)"}, {"measurement": "GI50", "setting": "SK-MEL-5", "value": "19.4 µM (inactive)"}, {"measurement": "GI50", "setting": "SK-OV-3", "value": "28 µM (inactive)"}, {"measurement": "GI50", "setting": "SN12C", "value": "22.8 µM (inactive)"}, {"measurement": "GI50", "setting": "SNB-19", "value": "28.6 µM (inactive)"}, {"measurement": "GI50", "setting": "SNB-75", "value": "21.6 µM (inactive)"}, {"measurement": "GI50", "setting": "SR", "value": "15.2 µM (inactive)"}, {"measurement": "GI50", "setting": "SW-620", "value": "33.2 µM (inactive)"}, {"measurement": "GI50", "setting": "T47D", "value": "26.2 µM (inactive)"}, {"measurement": "GI50", "setting": "TK-10", "value": "90.2 µM (inactive)"}, {"measurement": "GI50", "setting": "U-251", "value": "23.9 µM (inactive)"}, {"measurement": "GI50", "setting": "UACC-257", "value": "42.1 µM (inactive)"}, {"measurement": "GI50", "setting": "UACC-62", "value": "31.1 µM (inactive)"}, {"measurement": "GI50", "setting": "UO-31", "value": "19.3 µM (inactive)"}]}]}
